Literature values, collected in US6689909B1, “Substituted N-phenyl 2-hydroxy-2-methyl-3,3,3-trifluoropropanamide derivatives which elevate pyruvate dehydrogenase activity” (AstraZeneca AB, priority 1999, dated 2004).

What was measured:
PDH = conditions: single administration, 150 mg/kg, intraperitoneally
[1] = after repeated administration

Structure (SMILES): O=C(O)C(Cl)Cl [DCA, dichloroacetic acid]
- proportion of PDH in its active form (PDH): increased the proportion of PDH in its active form
- plasma glucose [1]: significant decrease in plasma glucose
